Measurements: patent US20250144223A1, “PROTEIN DEGRADATION COMPOUND BASED ON NAMPT TARGET PROTEIN AND APPLICATION THEREOF” (GLUETACS THERAPEUTICS (SHANGHAI) CO., LTD., priority 2021, published 2025)
pIC50: −log10 of the molar value.

System: Jurkat
Test: CellTiter-Glo Luminescent Cell Viability Assay, half inhibitory concentration (IC50) on tumor cell proliferation
Format: cell-based
Conditions: Homo sapiens, Jurkat cells, 72 h treatment
Procedure, shortened: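 Jurkat cells seeded at 20,000 cells/well in serum-containing RPMI1640, treated after 24 h with serially diluted compound for 72 h at 37 °C, 5% CO2. Viability read by CellTiter-Glo luminescence; IC50 calculated from growth-inhibition curves.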

pIC50 | Structure (SMILES)
7.19 | O=C(/C=C/c1cccnc1)NCCCCC1CCN(C(=O)c2ccc(N3CCN(C(=O)CCCCNc4cccc5c4CN(C4CCC(=O)NC4=O)C5=O)CC3)cc2)CC1 (stereo not shown) [SIAIS632016, (E)-N-(4-(1-(4-(4-(5-((2-(2,6-dioxopiperidin-3-yl)-1-oxoisoindolin-4-yl)amino)pentanoyl)piperazin-1-yl)benzoyl)piperidin-4-yl)butyl)-3-(pyridin-3-yl)acrylamide]
7.67 | O=C(/C=C/c1cccnc1)NCCCCC1CCN(C(=O)c2ccc(N3CCN(C(=O)CCCCCNc4cccc5c4CN(C4CCC(=O)NC4=O)C5=O)CC3)cc2)CC1 (stereo not shown) [SIAIS632017, (E)-N-(4-(1-(4-(4-(6-((2-(2,6-dioxopiperidin-3-yl)-1-oxoisoindolin-4-yl)amino)hexanoyl)piperazin-1-yl)benzoyl)piperidin-4-yl)butyl)-3-(pyridin-3-yl)acrylamide]
7.26 | O=C(/C=C/c1cccnc1)NCCCCC1CCN(C(=O)c2ccc(N3CCN(C(=O)CCCCCCNc4cccc5c4CN(C4CCC(=O)NC4=O)C5=O)CC3)cc2)CC1 (stereo not shown) [SIAIS632018, (E)-N-(4-(1-(4-(4-(7-((2-(2,6-dioxopiperidin-3-yl)-1-oxoisoindolin-4-yl)amino)heptanoyl)piperazin-1-yl)benzoyl)piperidin-4-yl)butyl)-3-(pyridin-3-yl)acrylamide]
6.53 | O=C(/C=C/c1cccnc1)NCCCCC1CCN(C(=O)c2ccc(N3CCN(C(=O)CSc4cccc5c4C(=O)N(C4CCC(=O)NC4=O)C5=O)CC3)cc2)CC1 (stereo not shown) [SIAIS632027, (E)-N-(4-(1-(4-(4-(2-((2-(2,6-dioxopiperidin-3-yl)-1,3-dioxoisoindolin-4-yl)thio)acetyl)piperazin-1-yl)benzoyl)piperidin-4-yl)butyl)-3-(pyridin-3-yl)acrylamide]
6.98 | O=C(/C=C/c1cccnc1)NCCCCC1CCN(C(=O)c2ccc(N3CCN(C(=O)CCSc4cccc5c4C(=O)N(C4CCC(=O)NC4=O)C5=O)CC3)cc2)CC1 (stereo not shown) [SIAIS632028, (E)-N-(4-(1-(4-(4-(3-((2-(2,6-dioxopiperidin-3-yl)-1,3-dioxoisoindolin-4-yl)thio)propanoyl)piperazin-1-yl)benzoyl)piperidin-4-yl)butyl)-3-(pyridin-3-yl)acrylamide]
7.54 | O=C(/C=C/c1cccnc1)NCCCCC1CCN(C(=O)c2ccc(N3CCN(C(=O)CCCCSc4cccc5c4C(=O)N(C4CCC(=O)NC4=O)C5=O)CC3)cc2)CC1 (stereo not shown) [SIAIS632029, (E)-N-(4-(1-(4-(4-(5-((2-(2,6-dioxopiperidin-3-yl)-1,3-dioxoisoindolin-4-yl)thio)pentanoyl)piperazin-1-yl)benzoyl)piperidin-4-yl)butyl)-3-(pyridin-3-yl)acrylamide]
7.96 | O=C(/C=C/c1cccnc1)NCCCCC1CCN(C(=O)c2ccc(N3CCN(C(=O)CCCCCSc4cccc5c4C(=O)N(C4CCC(=O)NC4=O)C5=O)CC3)cc2)CC1 (stereo not shown) [SIAIS632030, (E)-N-(4-(1-(4-(4-(6-((2-(2,6-dioxopiperidin-3-yl)-1,3-dioxoisoindolin-4-yl)thio)hexanoyl)piperazin-1-yl)benzoyl)piperidin-4-yl)butyl)-3-(pyridin-3-yl)acrylamide]
7.61 | O=C(/C=C/c1cccnc1)NCCCCC1CCN(C(=O)c2ccc(N3CCN(C(=O)CCCCCCSc4cccc5c4C(=O)N(C4CCC(=O)NC4=O)C5=O)CC3)cc2)CC1 (stereo not shown) [SIAIS632031, (E)-N-(4-(1-(4-(4-(7-((2-(2,6-dioxopiperidin-3-yl)-1,3-dioxoisoindolin-4-yl)thio)heptanoyl)piperazin-1-yl)benzoyl)piperidin-4-yl)butyl)-3-(pyridin-3-yl)acrylamide]
6.72 | O=C(/C=C/c1cccnc1)NCCCCC1CCN(C(=O)c2ccc(N3CCN(C(=O)CCCCCCCSc4cccc5c4C(=O)N(C4CCC(=O)NC4=O)C5=O)CC3)cc2)CC1 (stereo not shown) [SIAIS632032, (E)-N-(4-(1-(4-(4-(8-((2-(2,6-dioxopiperidin-3-yl)-1,3-dioxoisoindolin-4-yl)thio)octanoyl)piperazin-1-yl)benzoyl)piperidin-4-yl)butyl)-3-(pyridin-3-yl)acrylamide]
7.10 | O=C(/C=C/c1cccnc1)NCCCCC1CCN(C(=O)c2ccc(N3CCN(C(=O)COc4cccc5c4C(=O)N(C4CCC(=O)NC4=O)C5=O)CC3)cc2)CC1 (stereo not shown) [SIAIS632033, (E)-N-(4-(1-(4-(4-(2-((2-(2,6-dioxopiperidin-3-yl)-1,3-dioxoisoindolin-4-yl)oxy)acetyl)piperazin-1-yl)benzoyl)piperidin-4-yl)butyl)-3-(pyridin-3-yl)acrylamide]
7.02 | O=C(/C=C/c1cccnc1)NCCCCC1CCN(C(=O)c2ccc(N3CCN(C(=O)CCCCOc4cccc5c4C(=O)N(C4CCC(=O)NC4=O)C5=O)CC3)cc2)CC1 (stereo not shown) [SIAIS632034, (E)-N-(4-(1-(4-(4-(5-((2-(2,6-dioxopiperidin-3-yl)-1,3-dioxoisoindolin-4-yl)oxy)pentanoyl)piperazin-1-yl)benzoyl)piperidin-4-yl)butyl)-3-(pyridin-3-yl)acrylamide]
8.07 | O=C(/C=C/c1cccnc1)NCCCCC1CCN(C(=O)c2ccc(N3CCN(C(=O)CCCCCOc4cccc5c4C(=O)N(C4CCC(=O)NC4=O)C5=O)CC3)cc2)CC1 (stereo not shown) [SIAIS632035, (E)-N-(4-(1-(4-(4-(6-((2-(2,6-dioxopiperidin-3-yl)-1,3-dioxoisoindolin-4-yl)oxy)hexanoyl)piperazin-1-yl)benzoyl)piperidin-4-yl)butyl)-3-(pyridin-3-yl)acrylamide]
7.53 | O=C(/C=C/c1cccnc1)NCCCCC1CCN(C(=O)c2ccc(N3CCN(C(=O)CCCCCCOc4cccc5c4C(=O)N(C4CCC(=O)NC4=O)C5=O)CC3)cc2)CC1 (stereo not shown) [SIAIS632036, (E)-N-(4-(1-(4-(4-(7-((2-(2,6-dioxopiperidin-3-yl)-1,3-dioxoisoindolin-4-yl)oxy)heptanoyl)piperazin-1-yl)benzoyl)piperidin-4-yl)butyl)-3-(pyridin-3-yl)acrylamide]
8.56 | O=C(/C=C/c1cccnc1)NCCCCC1CCN(C(=O)c2ccc(N3CCN(CCCCCC#Cc4cccc5c4CN(C4CCC(=O)NC4=O)C5=O)CC3)nc2)CC1 (stereo not shown) [SIAIS632039, (E)-N-(4-(1-(6-(4-(7-(2-(2,6-dioxopiperidin-3-yl)-1-oxoisoindolin-4-yl)hept-6-yn-1-yl)piperazin-1-yl)nicotinoyl)piperidin-4-yl)butyl)-3-(pyridin-3-yl)acrylamide]
8.25 | O=C(/C=C/c1cccnc1)NCCCCC1CCN(C(=O)c2ccc(N3CCN(CCCCCCC#Cc4cccc5c4CN(C4CCC(=O)NC4=O)C5=O)CC3)nc2)CC1 (stereo not shown) [SIAIS632040, (E)-N-(4-(1-(6-(4-(8-(2-(2,6-dioxopiperidin-3-yl)-1-oxoisoindolin-4-yl)oct-7-yn-1-yl)piperazin-1-yl)nicotinoyl)piperidin-4-yl)butyl)-3-(pyridin-3-yl)acrylamide]
8.99 | O=C(/C=C/c1cccnc1)NCCCCC1CCN(C(=O)c2ccc(N3CCN(CCCCSc4cccc5c4CN(C4CCC(=O)NC4=O)C5=O)CC3)nc2)CC1 (stereo not shown) [SIAIS632041, (E)-N-(4-(1-(6-(4-(4-((2-(2,6-dioxopiperidin-3-yl)-1-oxoisoindolin-4-yl)thio)butyl)piperazin-1-yl)nicotinoyl)piperidin-4-yl)butyl)-3-(pyridin-3-yl)acrylamide]
